Several values for one entry are separate records, joined by “and”; a condition that tells them apart may be missing. Equal entries are not always repeated. Where two headings read alike, the source gives them in different places.
Experiments:
[1] = test system: Salmonella arizonae; experiment: Broth microdilution MIC, Example 7; format: cell-based
Method: Minimum inhibitory concentrations (μg/ml) were determined using the broth microdilution method recommended by the Clinical and Laboratory Standards Institute (CLSI). […] Bacterial growth (turbidity) in the wells with antimicrobial was compared with the amount of growth (turbidity) in the growth-control well (containing no antimicrobial). All isolates were tested in duplicate, if there was a difference of greater than one two-fold dilution in the results, the test was repeated a third time. The purity of the isolates was closely monitored during testing by subculturing the prepared bacterial inoculum onto SBA (sheep blood agar). The MICs of the control strains for the antimicrobial ampicillin were determined for each testing run as an internal quality control. The MIC50, […] and MIC range (minimum and maximum) were calculated for each of the bacterial groups.

[2] = test system: VRE; experiment: Broth microdilution MIC, Example 7 (NCL812 and analogues); format: cell-based, Enterococcus spp.; conditions: for MIC: Enterococcus, VRE
In short: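 Values are MICs in μg/ml from broth microdilution per CLSI, with growth scored against a drug-free well.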

[3] = test system: S. aureus clinical isolates (MRSA and MSSA); experiment: Broth microdilution MIC, Example 4; format: cell-based, Staphylococcus aureus
Method: Microtiter plates containing two-fold dilutions of each antimicrobial agent were inoculated with ˜10^5 CFU/ml of each isolate in a 100 μL final volume. Plates were incubated for 24 h at 37° C. Turbidity (absorbance at OD600) was measured using a Bio-Rad Benchmark Plus microplate spectrophotometer in Microplate Manager® version 5.2.1 (Bio-Rad). Minimum inhibitory concentration (MIC) endpoints were defined as the lowest antimicrobial concentration assessed by the spectrophotometer that inhibited bacterial growth. ATCC 49775 was included in the isolate collection as a control organism using breakpoints defined by the CLSI. The MIC50, MIC90 (concentrations that inhibited growth of the lower 50% and 90% of total organisms, respectively), and MIC range (minimum and maximum) were calculated to profile the antimicrobial susceptibility of the isolate collection.

[4] = test system: Staphylococcus pseudintermedius isolates (MSSP and MRSP); experiment: MIC (CLSI), Example 6; format: cell-based; conditions: for MIC: Staphylococcus pseudintermedius
Method: Anti-staphylococcal compounds were then tested against all 23 isolates and minimum inhibitory concentrations (MIC) were determined according to standard protocols. After the MICs were determined, the minimum bactericidal concentrations were performed to determine if these compounds are bacteriostatic or bacteriocidal.

[5] = 23 Staphylococcus pseudintermedius isolates

N=C(N/N=C/c1ccc(Cl)cc1)N/N=C/c1ccc(Cl)cc1 [NCL812, 1,3-bis[(E)-(4-chlorophenyl)methyleneamino]guanidine]
2 µg/mL and 1 µg/mL: MIC (μg/ml) at 24 hours, VRE 2 ([2]; isolate VRE 2, 24 hours, 1st and 2nd replicate rows)
2 to 4 µg/mL: MICrange ([3]; CA-MRSA (n = 10))
1.75 µg/mL: MIC ([2]; bioassay ranking, read-out: VRE)
2 µg/mL: MIC ([2]; 24 h, read-out: MIC (μg/ml) at 24 hours, VRE 1, isolate VRE 1, 24 hours, 1st and 2nd replicate rows) | MIC ([2]; 24 h, read-out: MIC (μg/ml) at 24 hours, VRE 2, isolate VRE 2, 24 hours, 1st and 2nd replicate rows) | MIC ([2]; VRE 002 [H12c], Phase II, 1st, read-out: MIC) | MIC ([2]; VRE 002 [H12c], Phase II, 2nd, read-out: MIC) | MIC ([2]; VRE 003 [H14t], Phase I, 1st, read-out: MIC) | MIC ([2]; VRE 003 [H14t], Phase I, 2nd, read-out: MIC) | MIC ([2]; VRE 003 [H14t], Phase II, 1st, read-out: MIC) | MIC ([2]; VRE 003 [H14t], Phase II, 2nd, read-out: MIC) | MIC ([2]; VRE 004 [H16c], Phase II, 1st, read-out: MIC) | MIC ([2]; VRE 004 [H16c], Phase II, 2nd, read-out: MIC) | MIC ([2]; VRE 005 [H17c], Phase I, 1st, read-out: MIC) | MIC ([2]; VRE 005 [H17c], Phase I, 2nd, read-out: MIC) | MIC ([2]; VRE 005 [H17c], Phase II, 1st, read-out: MIC) | MIC ([2]; VRE 005 [H17c], Phase II, 2nd, read-out: MIC) | MIC ([2]; VRE 006 [H19t], Phase I, 1st, read-out: MIC) | MIC ([2]; VRE 006 [H19t], Phase I, 2nd, read-out: MIC) | MIC ([2]; VRE 006 [H19t], Phase II, 1st, read-out: MIC) | MIC ([2]; VRE 006 [H19t], Phase II, 2nd, read-out: MIC) | MIC ([2]; VRE 007 [H23c], Phase II, 1st, read-out: MIC) | MIC ([2]; VRE 007 [H23c], Phase II, 2nd, read-out: MIC) | MIC ([2]; VRE 008 [H16c(dc)], Phase II, 1st, read-out: MIC) | MIC ([2]; VRE 008 [H16c(dc)], Phase II, 2nd, read-out: MIC) | MIC ([2]; VRE 009 [H25c], Phase II, 1st, read-out: MIC) | MIC ([2]; VRE 009 [H25c], Phase II, 2nd, read-out: MIC) | MIC ([2]; VRE 010 [H26c(w)], Phase II, 1st, read-out: MIC) | MIC ([2]; VRE 010 [H26c(w)], Phase II, 2nd, read-out: MIC) | MIC ([2]; VRE 011 [H26c(dc)], Phase I, 1st, read-out: MIC) | MIC ([2]; VRE 011 [H26c(dc)], Phase II, 1st, read-out: MIC) | MIC ([2]; VRE 011 [H26c(dc)], Phase II, 2nd, read-out: MIC) | MIC ([2]; VRE 012 [H35t], Phase I, 1st, read-out: MIC) | MIC ([2]; VRE 012 [H35t], Phase I, 2nd, read-out: MIC) | MIC ([2]; VRE 012 [H35t], Phase II, 1st, read-out: MIC) | MIC ([2]; VRE 012 [H35t], Phase II, 2nd, read-out: MIC) | MIC ([2]; VRE 013 [H37c(w)], Phase I, 1st, read-out: MIC) | MIC ([2]; VRE 013 [H37c(w)], Phase I, 2nd, read-out: MIC) | MIC ([2]; VRE 013 [H37c(w)], Phase II, 1st, read-out: MIC) | MIC ([2]; VRE 013 [H37c(w)], Phase II, 2nd, read-out: MIC) | MIC ([2]; VRE 014 [H37c(g)], Phase II, 1st, read-out: MIC) | MIC ([2]; VRE 014 [H37c(g)], Phase II, 2nd, read-out: MIC) | MIC (μg/ml) at 24 hours, VRE 1 ([2]; isolate VRE 1, 24 hours, 1st and 2nd replicate rows) | MIC50 [4, 5] | MIC ([4]; 23 Staphylococcus pseudintermedius isolates, read-out: MIC mode) | MIC ([4]; Staphylococcus pseudintermedius isolates, read-out: MIC mode) | MIC ([4]; isolate S2P2, read-out: MIC) | MIC ([4]; isolate S3P3, read-out: MIC) | MIC ([4]; isolate S5P5, read-out: MIC) | MIC ([4]; isolate S6P6, read-out: MIC) | MIC ([4]; isolate S7P7, read-out: MIC) | MIC ([4]; isolate S8P8, read-out: MIC) | MIC ([4]; isolate S9P9, read-out: MIC) | MIC ([4]; isolate S10P10, read-out: MIC) | MIC ([4]; isolate S12P12, read-out: MIC) | MIC ([4]; isolate S13P13, read-out: MIC) | MIC ([4]; isolate S14P14, read-out: MIC) | MIC ([4]; isolate S16P16, read-out: MIC) | MIC ([4]; isolate S17P17, read-out: MIC) | MIC ([4]; isolate S21P21, read-out: MIC) | MIC ([4]; isolate S23P23, read-out: MIC)
> 128 µg/mL: MIC ([1]; Salmonella enterica, Salmonella arizonae, read-out: MIC)
1 µg/mL: MIC ([4]; isolate S4P4, read-out: MIC)
>128 µg/mL: MIC ([1]; S. arizonae, 1st) | MIC ([1]; S. arizonae, 2nd)
4 µg/mL: MIC ([2]; VRE 002 [H12c], Phase I, 1st, read-out: MIC) | MIC ([2]; VRE 002 [H12c], Phase I, 2nd, read-out: MIC) | MIC ([2]; VRE 004 [H16c], Phase I, 1st, read-out: MIC) | MIC ([2]; VRE 004 [H16c], Phase I, 2nd, read-out: MIC) | MIC ([2]; VRE 007 [H23c], Phase I, 1st, read-out: MIC) | MIC ([2]; VRE 007 [H23c], Phase I, 2nd, read-out: MIC) | MIC ([2]; VRE 008 [H16c(dc)], Phase I, 1st, read-out: MIC) | MIC ([2]; VRE 008 [H16c(dc)], Phase I, 2nd, read-out: MIC) | MIC ([2]; VRE 009 [H25c], Phase I, 1st, read-out: MIC) | MIC ([2]; VRE 009 [H25c], Phase I, 2nd, read-out: MIC) | MIC ([2]; VRE 010 [H26c(w)], Phase I, 1st, read-out: MIC) | MIC ([2]; VRE 010 [H26c(w)], Phase I, 2nd, read-out: MIC) | MIC ([2]; VRE 011 [H26c(dc)], Phase I, 2nd, read-out: MIC) | MIC ([2]; VRE 014 [H37c(g)], Phase I, 1st, read-out: MIC) | MIC ([2]; VRE 014 [H37c(g)], Phase I, 2nd, read-out: MIC)
1 to 4 µg/mL: MIC range [4, 5] | MIC range ([4]; Staphylococcus pseudintermedius isolates)
2 to 8 µg/mL: MICrange ([3]; Methicillin-susceptible staphylococci (n = 10)) | MICrange ([3]; Total bacterial isolates (n = 30))

From patent US10253002B2, “Compounds and methods of treating infections” (Neoculi Pty Ltd., priority 2013, dated 2019)
